Literature values in patent publication US20020103139A1, “Solid self-emulsifying controlled release drug delivery system composition for enhanced delivery of water insoluble phytosterols and other hydrophobic natural compounds for body weight and cholestrol level control” (priority 2000, published 2002).

Legend:
[1] = treated patients versus placebo
[2] = doses of 700 and 300 mg

Row | SMILES | average weight lost more than with placebo [1] [pounds] | difference in cholesterol reduction between doses [2]
1 | CCN[C@@H](C)Cc1cccc(C(F)(F)F)c1 [dexfenfluramine] | 5 | –
2 | CCNC(C)Cc1cccc(C(F)(F)F)c1 (stereo not drawn) [fenfluramine] | 5 | –
3 | CC[C@H](CC[C@@H](C)[C@H]1CC[C@H]2[C@@H]3CC[C@H]4C[C@@H](O)CC[C@]4(C)[C@H]3CC[C@]12C)C(C)C [sitostanol] | – | No significant difference
